Source: article PMC3038857, “Using Nuclear Receptor Activity to Stratify Hepatocarcinogens” (PLoS ONE, 2011)

Columns and labels:
PXR (NR1I2) [1] = target: T1, PXR (NR1I2) (Homo sapiens, UniProt O75469); test: ATG_PXRE_CIS: Factorial reporter gene assay (HepG2); format: cell-based; set-up: endogenous in cells; host or cells: HepG2; details: HepG2
T1 sequence (O75469 1-434): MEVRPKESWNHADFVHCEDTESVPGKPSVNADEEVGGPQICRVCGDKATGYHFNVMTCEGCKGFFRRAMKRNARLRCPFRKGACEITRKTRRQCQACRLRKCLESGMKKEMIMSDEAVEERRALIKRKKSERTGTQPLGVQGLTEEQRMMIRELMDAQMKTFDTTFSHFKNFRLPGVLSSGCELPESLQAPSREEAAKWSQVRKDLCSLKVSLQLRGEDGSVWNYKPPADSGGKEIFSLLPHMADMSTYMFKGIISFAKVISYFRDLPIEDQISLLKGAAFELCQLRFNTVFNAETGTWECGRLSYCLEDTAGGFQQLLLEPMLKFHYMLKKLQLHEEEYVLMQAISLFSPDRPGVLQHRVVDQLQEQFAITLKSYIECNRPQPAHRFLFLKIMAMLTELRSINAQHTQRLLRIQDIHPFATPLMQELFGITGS
Procedure, shortened: (§1)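 Mammalian one-hybrid trans reporters (25 MRTUs) measured ERRg, FXR and PPARg; PXRE used cis reporters from a 48-site MRTU library. Both were run in HepG2. Dosing: seven concentrations, MTC as the highest, three-fold dilution series.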

[2] = target: T2, PPARA (peroxisome proliferator-activated receptor alpha) (Homo sapiens, UniProt Q07869); test: ATG_PPARa_TRANS: Factorial reporter gene assay (HepG2); format: cell-based; set-up: scale not given here
T2 construct: expressed in transfected cells; host or cells: HepG2
T2 sequence (Q07869 1-468): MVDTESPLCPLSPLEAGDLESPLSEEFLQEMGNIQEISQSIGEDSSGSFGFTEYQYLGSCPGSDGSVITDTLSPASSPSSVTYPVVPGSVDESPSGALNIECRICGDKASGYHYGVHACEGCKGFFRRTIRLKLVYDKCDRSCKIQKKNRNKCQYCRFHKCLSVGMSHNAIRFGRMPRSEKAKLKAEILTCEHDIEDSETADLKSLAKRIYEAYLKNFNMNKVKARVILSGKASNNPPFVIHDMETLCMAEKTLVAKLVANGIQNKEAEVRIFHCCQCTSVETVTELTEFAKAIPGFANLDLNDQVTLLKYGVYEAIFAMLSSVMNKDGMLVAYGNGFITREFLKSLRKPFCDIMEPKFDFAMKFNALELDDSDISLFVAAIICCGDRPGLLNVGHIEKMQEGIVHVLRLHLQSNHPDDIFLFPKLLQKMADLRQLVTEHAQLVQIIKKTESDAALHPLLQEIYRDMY
Description: A multiple reporter transcription unit (MRTU) library consisting of 48 transcription factor binding sites was transfected into the HepG2 human liver hepatoma cell line. In addition to the cis-acting reporter genes (CIS), a modification of the approach was used to generate a trans-system (TRANS) with a mammalian one-hybrid assay consisting of an additional 25 MRTU library reporting the activity of nuclear receptor super-family members. […] These assays were performed by Attagene Inc. (Morrisville NC) under contract to EPA.
In addition to the cis-acting reporter genes (CIS), a modification of the approach was used to generate a trans-system (TRANS) with a mammalian one-hybrid assay consisting of an additional 25 MRTU library reporting the activity of nuclear receptor super-family members. […] Chemicals were then tested in the CIS and TRANS assays at seven concentrations starting at the MTC and followed by three-fold serial dilutions. These assays were performed by Attagene Inc. (Morrisville NC) under contract to EPA. Detailed description of the methods, data and analysis methods for this dataset will be presented in a separate publication.

AR (androgen receptor) = test: NVS_NR_hAR: Human AR 3H-Methyltrienolone (cell-free HTS); format: binding
Excerpt: (§2) These are a collection of biochemical assays measuring binding constants and enzyme inhibition values. Chemicals were initially screened at a single concentration in duplicate wells at a concentration of 10 [drawing 63] M for cytochrome P-450 assays and 25 [drawing 64] M for all others. […] These assays were run by Caliper Life Sciences (Hanover, MD) under contract to EPA. Short assay descriptions are available at: http://www.caliperls.com/products/contract-research/in-vitro/.
(§3) Cell-free HTS Assays: A collection of biochemical assays measuring binding constants and enzyme inhibition values. […] These assays were run by Caliper Life Sciences (Hanover, MD) under contract to EPA. Short assay descriptions are available at http://www.caliperls.com/products/contract-research/in-vitro/. Values for all endpoints were imported into GeneData Screener (Basel, Switzerland) and normalised to solvent controls from the same plate as the tested compounds and expressed as percent of neutral control. Concentration-response curves were fit in GeneData Screener (Basel, Switzerland) Condeseo module using the Hill equation and AC50 values were determined. […] Detailed description of the methods, data and analysis methods for this dataset are described in a separate publication.

CYP3A4 = test: CLZD_CYP3A4: Change in expression of CYP3A4 (primary human hepatocytes); format: cell-based; details: 24 hr
Procedure, shortened: (§4)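 Read-out: mRNA change by multiplexed quantitative nuclease protection assay. Primary human hepatocytes; 5 concentrations, 0.004-40 µM; exposures 6, 24, 48 hr.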

[3] = target: T3, PPARG (peroxisome proliferator-activated receptor gamma) (Homo sapiens, UniProt P37231); test: ATG_PPARg_TRANS: Factorial reporter gene assay (HepG2); format: cell-based; details: HepG2
T3 construct: expressed in transfected cells; host or cells: HepG2
T3 sequence (P37231 1-505): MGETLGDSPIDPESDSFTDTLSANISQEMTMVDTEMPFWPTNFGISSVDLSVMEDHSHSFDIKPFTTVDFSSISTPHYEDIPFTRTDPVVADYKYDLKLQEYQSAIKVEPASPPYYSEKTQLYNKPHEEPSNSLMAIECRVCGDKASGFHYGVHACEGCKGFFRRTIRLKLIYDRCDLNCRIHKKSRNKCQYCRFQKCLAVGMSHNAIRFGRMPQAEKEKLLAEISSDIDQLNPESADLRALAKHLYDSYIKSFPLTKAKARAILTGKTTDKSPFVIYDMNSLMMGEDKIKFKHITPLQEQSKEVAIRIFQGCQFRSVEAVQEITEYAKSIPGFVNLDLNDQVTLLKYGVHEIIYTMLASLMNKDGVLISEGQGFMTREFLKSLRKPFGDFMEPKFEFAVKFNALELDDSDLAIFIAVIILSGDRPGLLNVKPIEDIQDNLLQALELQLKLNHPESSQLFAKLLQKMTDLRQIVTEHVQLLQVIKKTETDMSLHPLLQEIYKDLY
Procedure, shortened: as §1

PPARg (PPARG) = target: T4, PPARg (PPARG) (Homo sapiens, UniProt P37231); test: NVS_NR_hPPARg: Human PPARg Fluorescent Ligand (cell-free HTS); format: binding
T4 sequence (P37231 1-505): T3 sequence (P37231 1-505)
Excerpt: as §2, §3

CYP2B6 = test: CLZD_CYP2B6: Change in expression of CYP2B6 (primary human hepatocytes); format: cell-based; details: 24 hr
Procedure, shortened: as §4

PXR (NR1I2) [4] = target: T1, PXR (NR1I2); test: NVS_NR_hPXR: Human PXR Fluormone PXR (SXR) green (cell-free HTS); format: binding
Procedure, shortened: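 Responses were normalized to same-plate solvent controls as percent of neutral control. AC50 values came from Hill-equation fits of concentration-response curves.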

Compound | ATG_PXRE_CIS (PXR (NR1I2) [1]) | ATG_PPARa_TRANS [2] | NVS_NR_hAR (AR (androgen receptor)) | CLZD_CYP3A4_24 (CYP3A4) | ATG_PPARg_TRANS [3] | NVS_NR_hPPARg (PPARg (PPARG)) | CLZD_CYP2B6_24 (CYP2B6) | NVS_NR_hPXR (PXR (NR1I2) [4])
O=C(O)C(F)(F)C(F)(F)C(F)(F)C(F)(F)C(F)(F)C(F)(F)C(F)(F)F [r241] | 4.367 | 4.377 |  |  |  |  |  | 
O=S(=O)(O)C(F)(F)C(F)(F)C(F)(F)C(F)(F)C(F)(F)C(F)(F)C(F)(F)C(F)(F)F [r240] | 4.745 |  | 4.625 | 4.541 | 4.585 | 4.932 | 4.97 | 4.496
